# According to US20240166626A1, “Compounds and Methods for Preventing, Treating, or Ameliorating Airway Disease” (THOMAS JEFFERSON UNIVERSITY, priority 2021, published 2024):
# Biological target: FLAG-β2AR (Homo sapiens, UniProt P07550)
# Assay: Receptor internalization, cell surface ELISA, HEK 293 FLAG-β2AR
# Type: cell-based
# Settings: 10 μM DFPQ, ISO up to 60 min, FIG. 4A
# Method: FIGS. 4A-4F: DFPQ inhibits internalization of the β2AR and protects from agonist induced desensitization in cell and tissue models. FIG. 4A: Effect of DFPQ on agonist-promoted internalization of the β2AR. […] Cells were fixed and receptor surface expression was measured by ELISA. […] Cells were lysed and cAMP production was measured by ELISA. […] FIG. 4C: […] Airway contractility was measured by luminal area of bronchioles by microscopy at various times. FIG. 4D: […] HASM cells were scratched and incubated overnight in PDGF containing serum free media. Cells were imaged to evaluate migration into the scratched area. […] Cells were read every three minutes for 18 minutes on a PolarStar Optima plate reader (BMG) to establish peak signal. […] Luminescence was determined at room temperature (23-25° C.) on a PolarStar Optima plate reader (BMG). […] Relative assay bias was calculated from the ratio of normalized cAMP and arrestin recruitment responses. […] BRET was measured using a Tecan Infinite F500 microplate reader. […] Bound [35 S]GTPγS was collected by rapid filtration on GF/B filters, washed 4 times with 4 ml of cold GTPγS wash buffer and analyzed by liquid scintillation counting. […] Immunoprecipitated proteins were separated by SDS-PAGE and analyzed by western blot using a β2AR C-terminal tail or phospho-specific antibody. […] Band intensity was measured by densitometry using ImageJ. […]
# FLAG-β2AR, sequence (P07550 whole entry): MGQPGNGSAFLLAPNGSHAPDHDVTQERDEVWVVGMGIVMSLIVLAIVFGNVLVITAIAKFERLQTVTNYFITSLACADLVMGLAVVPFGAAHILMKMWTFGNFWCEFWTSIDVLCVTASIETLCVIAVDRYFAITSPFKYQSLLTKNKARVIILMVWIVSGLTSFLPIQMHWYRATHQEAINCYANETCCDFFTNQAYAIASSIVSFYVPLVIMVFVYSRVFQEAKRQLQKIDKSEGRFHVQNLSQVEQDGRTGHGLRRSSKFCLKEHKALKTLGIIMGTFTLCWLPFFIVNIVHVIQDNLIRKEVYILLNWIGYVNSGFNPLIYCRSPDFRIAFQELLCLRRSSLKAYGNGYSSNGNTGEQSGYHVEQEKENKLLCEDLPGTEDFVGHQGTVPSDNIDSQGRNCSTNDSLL
smiles,measurement,value
"Fc1ccc(Nc2nc(NC3CCCCC3)c3ccccc3n2)cc1F [DFPQ, N^4-cyclohexyl-N^2-(3,4-difluorophenyl)quinazoline-2,4-diamine]",agonist-induced internalization of the receptor,fully inhibited
